We go through two substances from EP0449195B1, “Aminobenzene compounds, their production and use” (Takeda Chemical Industries, Ltd., priority 1990, dated 1991).

The subject of the test is N18-RE-105 cells. Description: Protective activity to glutamic acid-induced necrocytosis in N18-RE-105 cells (cell lethal ratio from LDH activity). Conditions: glutamic acid (10 mM), cultivation 24 hours after addition, LDH activity in cells and medium, read-out: IC₅₀ (minimum concentrations for depressing cell lethal ratio to not more than 50%), Effect on glutamic acid cytotoxicity (cell lethal ratio). In kind it is cell-based. As to the method:
When a high concentration of glutamic acid (1 to 10 mM) is added to N18-RE-105 cells, neocrocytosis caused by oxidative stress due to inhibition of incorporation of cystine into cells is observed [Neuron 2, 1547 (1989); J. Pharmacol. Exp. Ther. 250, 1132 (1989)].
Activity of various compounds against this glutamic acid-induced necrocytosis was studied. About 10,000 cells were inoculated into a culture dish of 35 mm in diameter containing DMEM medium (1 ml). After cultivation for 24 hours, glutamic acid and a compound to be tested were added. After the medium was changed to DMEM mediums containing the compound in various concentrations and then glutamic acid (10 mM) was added. After addition of glutamic acid, cultivation was further continued for 24 hours. Then, surviving cells were collected and […] activity contained in the cells and medium was determined. A cell lethal ratio (%) was calculated according to the following formula: Cell lethal ratio (%) =(LDH activity in medium)/(LDH activity in cells + LDH activity in medium)x 100 [formula] Regarding the typical compounds of the present invention, minimum concentrations for depressing cell lethal ratio to not more than 50% (IC₅₀) is shown in Table 9.

For “4-(4-octylaminophenyloxy)piperidine [Example 45]”, the IC50 came out at 5.5 nM.

For “4-[4-(1-phenyldecanylamino)phenyloxy]piperidine [Example 52]”, the IC50 amounted to 10 nM.
